From patent US20250223306A1, “TEAD INHIBITORS AND METHODS OF USE” (Sporos BioDiscovery, Inc., priority 2022, published 2025)

Tested on: NCI-H226 xenograft
Experiment: Inhibition of mouse xenograft NCI-H226 tumors
Assay type: in vivo, BALB/c nude mice
Settings: Day 27, p.o., QD
Text: This study evaluated the in vivo therapeutic efficacy of TEAD inhibitors in the treatment of the subcutaneous lung cancer NCI-H226 xenograft model in female BALB/c nude mice.
• ANOVA Analysis of variance • BW Body weight • BWL Body weight loss • FFPE Formalin fixed paraffin embedded • IACUC Institutional animal care and use committee • MTV Mean tumor volume • N/A Not available or not applicable • p.o. Oral (ly) • QD Once a day • REG REG=[(T0−Ti)/T0]×100%; • Ti as the mean tumor volume of the treatment group on the measurement day; • T0 as the mean tumor volume of the treatment group on Day 0. • ROA Route of administration • RT Room temperature • RTV Relative tumor volume • SD Standard deviation • SEM Standard error of mean • SOC Standard of care used in clinical setting for a specific disease • TBD To be determined • T/C The Ti/Ci value (%): T/C %=Ti/Ci×100; • Ti and Ci are the mean tumor volumes of the treatment and control groups, respectively, on a given day. • TGI Tumor growth inhibition; TGI %=(1−Ti/Ci)×100; • Ti and Ci are the mean tumor volumes of the treatment and control groups, respectively, on a given day. • TV Tumor volume • PK/PD Pharmacokinetics/Pharmacodynamics • ΔInhibition Mean % ΔInhibition=((Ci−C0)−(Ti−T0))/(Ci−C0)*100% • Ti and Ci are the mean tumor volumes of the treatment and control groups, respectively, on a given day. T0 and C0 as the mean tumor volumes of the treatment and vehicle groups on Day 0.
• Species Mus musculus • Strain Balb/c nude • Supplier GemPharmatech Co., Ltd • Gender Female • No. of Animals Ordered 68 (45 plus 23 spare) • No. of Animals Assigned 45 • to Study • Average Age of Animals 6-8 weeks • at Study Initiation
The NCI-H226 cells (CL-00364) cancer cells were maintained in vitro with RPMI1640 medium supplemented with 10% fetal bovine serum at 37° C. in an atmosphere of 5% CO2 in the air. The cells in exponential growth phase were harvested and quantitated by cell counter before tumor inoculation.
Each mouse was inoculated subcutaneously in the right front flank region with NCI-H226 tumor cells (1×10^7) in 0.2 ml of PBS mixed with Matrigel (1:1) for tumor development.
The randomization was performed when the mean tumor size reached 138.81 mm^3. 45 mice were enrolled in the study. All animals were randomly allocated to 9 study groups, 5 mice in each group. Randomization was performed based on “Matched distribution” method/“Stratified” method (StudyDirector™ software, version 3.1.399.19)/randomized block design. The date of randomization was denoted as day 0.
The treatment was initiated on the same day of randomization (day 0) per study design.
After tumor cells inoculation, the animals were checked daily for morbidity and mortality. During routine monitoring, the animals were checked for any effects of tumor growth and treatments on behavior such as mobility, food and water consumption, body weight gain/loss (Body weights were measured twice per week after randomization), eye/hair matting and any other abnormalities. Mortality and observed clinical signs were recorded for individual animals in detail.
Tumor volumes were measured twice per week after randomization in two dimensions using a caliper, and the volume was expressed in mm^3 using the formula: “V=(L×W×W)/2, where V is tumor volume, L is tumor length (the longest tumor dimension) and W is tumor width (the longest tumor dimension perpendicular to L). Dosing as well as tumor and body weight measurements were conducted in a Laminar Flow Cabinet.
To compare tumor volumes of different groups at a pre-specified day, Bartlett's test was first used to check the assumption of homogeneity of variance across all groups. When the p-value of Bartlett's test was >=0.05, one-way ANOVA was performed to test overall equality of means across all groups. […]

Row | Compound | T/C (3 mg/kg) | TGI (3 mg/kg) | Tumor Volume (mean ± SEM) (3 mg/kg) | T/C (10 mg/kg) | TGI (10 mg/kg) | Tumor Volume (mean ± SEM) (10 mg/kg) | T/C (25 mg/kg) | TGI (25 mg/kg) | Tumor Volume (mean ± SEM) (25 mg/kg)
1 | C[C@H](NC(=O)c1cnc2c(C3=CCC(C(F)(F)F)CC3)cccc2c1)c1ccccn1 (stereo partly drawn) [Compound 2, N—((S)-1-(pyridin-2-yl)ethyl)-8-(4-(trifluoromethyl)cyclohex-1-en-1-yl)quinoline-3-carboxamide] | 64.62% | 35.38% | 345.21 ± 85.33 mm^3 | 45.64% | 54.36% | 243.78 ± 74.70 mm^3 | 19.66% | 80.34% | 105.03 ± 13.17 mm^3
2 | O=C(NCc1ncco1)c1cnc2c(C3=CCC(C(F)(F)F)CC3)cccc2c1 (stereo not drawn) [Compound 11, N-(oxazol-2-ylmethyl)-8-(4-(trifluoromethyl)cyclohex-1-en-1-yl)quinoline-3-carboxamide] | 89.83% | 10.17% | 479.84 ± 96.60 mm^3 | 36.49% | 63.51% | 194.94 ± 42.44 mm^3 | 21.10% | 78.90% | 112.73 ± 17.20 mm^3
